For this experiment, the system named is dendritic cells (TLR stimulation). The experiment is described as follows: IFN-β and IL-6 production by WT and GADD34ΔC/ΔC DCs stimulated with TLR ligands. The conditions noted are these: GBZ 50 μM. The class given is cell-based, mouse. The procedure:
BM-derived DCs were differentiated in vitro from the bone marrow of 6-8 weeks old male mice, using either FLT3 ligand or GM-CSF. Flt3L-DCs were used for experiments between days 6 and 7. Flt3L was produced using B16-Flt3L hybridoma cells. Bone marrow progenitors were plated at 1.5 10^6 cells/ml, 4 ml/well in 6 well plate, and cultivated with RPMI (GIBCO), 10% FCS (Sigma Aldrich), 100 units/ml penicillin and 100 μg/ml streptomycin (GIBCO), 50 μM b-mercaptoethanol (VWR) and Flt3L. For sorted Flt3L-DCs, cells were gently harvested at day 7 with cold PBS 2% FCS, centrifuged 1200 rpm 5 min at 4° C., counted and stained with for 30 mins at 4° C. Cells were sorted with the FACS ARIASorp. Cells were kept on ice all the time. After sorting, cells were resuspended in supplemented Flt3L-DCs medium at the concentration of 0.2 0.10^6 cells/well and plated at in a 96 wells plate U bottom. GM-CSF DCs were produced and used for experiments at day 6 of differentiation.
Splenocytes were dissociated injecting Liberase TL, followed by 25 min incubation at 37° C. Cells were washed using MACS buffer (PBS 1X+1% FBS+2 mM EDTA) and passed in a cell strainer 70 μm, then centrifuged 5 min at 450 RCF, 4° C. Red blood cells were lysed using the commercial buffer from eBioscience. Dendritic cells were purified using CD11c^+ positive selection kit from Miltenyi. Splenic DCs were then resuspended in the same medium as for Flt3L-DCs at 1.10^6 cells/ml and plated in a 12 wells plate, 2 ml×well. B lymphocytes were purified using B cell isolation kit, a negative selection kit from Miltenyi. B cells were then resuspended in a medium composed of RPMI (GIBCO), 10% FCS (Sigma Aldrich), lx glutamine, 1× non-essential amino acids, 10 mM HEPES (all the previous from GIBCO), 50 μM b-mercaptoethanol (VWR). Cells were plated at 1×10^6 cells/well in 96 well plate, flat.
Mouse IFN-β quantification in culture supernatant was performed using the Mouse Interferon Beta ELISA kit (PBL InterferonSource); mouse IL-6, TNFα, IL-10, human TNFα and human IFNα were quantified using ELISA kit (eBioscience) respectively, according to manufacturer instructions.
We have previously shown that GM-CSF-induced bone-marrow-derived DCs from GADD34^ΔC/ΔC mouse display limited capacity to express IFNβ and IL-6 in response to the dsRNA mimic polyriboinosinic:polyribocytidylic acid (poly(I:C)). We investigated whether this observation could be extended to other DC subsets and TLR ligands. WT and GADD34^ΔC/ΔC DC isolated directly from spleen or generated in vitro from bone-marrow progenitors, using either Flt3L- or GM-CSF-induced differentiation, were submitted to stimulation with LPS, poly(I:C) or CpG ODN and analyzed for IFN-β and IL-6 production (data not shown). […]

[1] abbreviates: GADD34ΔC/ΔC Flt3L-DCs, CpG ODN stimulation.

As for `NC(N)=N/N=C/c1c(Cl)cccc1Cl` [GBZ, 2-(2,6-dichlorobenzylidene)-hydrazinecarboximidamide], under setting [1], the IFN-β production result is given as “incapable of producing” and the IL-6 production entry is reported as “incapable of producing”. Further, for the setting “data not shown”, the “IFN-β production in response to TLR9 stimulation compared with Gadd34 genetic inactivation” value is on record as “far stronger capacity to inhibit” and the “IL-6 production compared with Gadd34 genetic inactivation” value was “superimposable to GADD34 deficiency”.

The record behind these values is patent publication US20210177814A1, “USE OF GUANABENZ OR DERIVATES THEREOF FOR THE TREATMENT OF TYPE I IFN-DEPENDENT PATHOLOGIES” (INSERM (Institut National de la Santé et de la Recherche …, priority 2018, published 2021).
